Measurements: PMC6511888, “Synthesis, Biological Evaluation, and Molecular Modeling Studies of New Thiadiazole Derivatives as Potent P2X7 Receptor Inhibitors” (Frontiers in Chemistry, 2019)
One block for each molecule: values may come before it.

Assays:
Format in all cases: cell-based
P2Y14R = target: T1, P2Y14R (Mus musculus, UniProt Q9ESG6); assay: UDP-glucose-activated [Ca2+]i shifts in mouse peritoneal macrophages; details: 1 μM
T1 construct: endogenous in cells; host or cells: mouse peritoneal macrophages
T1 sequence (Q9ESG6 1-338): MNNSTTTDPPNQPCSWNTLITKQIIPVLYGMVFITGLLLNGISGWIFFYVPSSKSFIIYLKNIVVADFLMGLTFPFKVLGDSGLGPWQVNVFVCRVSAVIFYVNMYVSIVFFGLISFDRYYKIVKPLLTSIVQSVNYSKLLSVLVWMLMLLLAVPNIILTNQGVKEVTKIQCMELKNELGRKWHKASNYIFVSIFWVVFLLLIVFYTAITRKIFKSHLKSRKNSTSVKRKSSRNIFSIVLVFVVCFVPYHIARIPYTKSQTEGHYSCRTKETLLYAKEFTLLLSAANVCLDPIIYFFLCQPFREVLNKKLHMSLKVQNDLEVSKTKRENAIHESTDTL
Description: (§1) Mouse peritoneal macrophages, PC12 cells, J774 cells, and HEPG2 cells were analyzed by fluorescence microscopy to measure the intracellular Ca^2+ concentrations ([Ca^2+]i). Cells were incubated with 2 μM Fura-2-AM (Molecular Probes) for 30 min, and the [Ca^2+]i mobilization was measured in the F340/F380 ratios with a FlexStation 3 multimode microplate reader (Molecular Devices). Cells were plated in translucent 96-well plates (BD Falcon) for 15 min and then washed and incubated in a saline solution with 150 NaCl, 5 KCl, 1 MgCl2, 1 CaCl2, and 10 HEPES (pH 7.4) for 30 min before measurements of [Ca^2+]i. The Ca^2+ influx was induced by stimulating cells with P2 receptor agonists. P2 receptor antagonists were added 10 min before P2 receptor agonist addition. […] Ionomycin was considered a positive control, and the other recordings were normalized in relation to the AUC.

P2X1R = target: T2, P2X1R (Mus musculus, UniProt P51576); assay: β,γ-meATP-induced intracellular Ca2+ mobilization in J774 cells; details: 10 μM
T2 construct: endogenous in cells; host or cells: J774 cells
T2 sequence (P51576 1-399): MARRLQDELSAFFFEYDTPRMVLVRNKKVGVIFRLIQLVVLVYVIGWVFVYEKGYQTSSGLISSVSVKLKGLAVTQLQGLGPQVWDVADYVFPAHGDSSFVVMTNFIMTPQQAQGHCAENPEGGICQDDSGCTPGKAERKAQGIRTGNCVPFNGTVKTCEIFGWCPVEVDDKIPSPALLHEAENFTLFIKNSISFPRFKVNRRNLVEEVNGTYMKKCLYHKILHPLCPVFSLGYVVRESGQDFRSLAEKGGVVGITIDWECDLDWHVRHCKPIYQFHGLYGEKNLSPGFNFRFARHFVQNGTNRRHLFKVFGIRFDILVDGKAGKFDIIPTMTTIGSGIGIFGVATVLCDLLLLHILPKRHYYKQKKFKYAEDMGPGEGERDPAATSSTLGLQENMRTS
Description: as §1

P2X3R = assay: α,β-meATP-induced [Ca2+]i shift; details: 10 μM
Description: as §1

Effect on UDP-glucose-activated [Ca2+]i shifts (P2Y14R): inhibited
Compound: O=C(O)c1cc(-c2ccc(C3CCNCC3)cc2)c2ccc(-c3ccc(C(F)(F)F)cc3)cc2c1 [PPNT]

Effect on β,γ-meATP-induced intracellular Ca2+ mobilization (P2X1R): inhibited
Compound: O=C(Nc1cccc(C(=O)Nc2ccc(S(=O)(=O)O)c3cc(S(=O)(=O)O)cc(S(=O)(=O)O)c23)c1)Nc1cccc(C(=O)Nc2ccc(S(=O)(=O)O)c3cc(S(=O)(=O)O)cc(S(=O)(=O)O)c23)c1 [NF023, reference compound]

Compound: Nc1ncnc2c1ncn2[C@@H]1O[C@H](COP(=O)(O)OP(=O)(O)OP(=O)(O)O)[C@H]2OC3(O[C@H]21)C([N+](=O)[O-])=CC(=[N+]([O-])[O-])C=C3[N+](=O)[O-] (stereo partly drawn) [TNP-ATP, reference compound]
Effect on activity of P2X3R agonist α,β-meATP (P2X3R): inhibited
